Experimental data taken from patent US10030036B2, “Method and dyes for detecting and destroying cancer cells” (Lahjavida, LLC, priority 2009, dated 2018).

Assay: near infrared fluorescent spectral properties
Assay type: physicochemical
Text: Some of these compounds in formula 1-8 and the compounds shown in Scheme 1 have variable water solubility, near infrared fluorescent spectral properties suitable for in-vivo tissue imaging (e.g. MHI-148 has λmax absorption 780 nm and high intensity λmax emission 800 nm (FIG. 1)), and have been tested to have similar activities in near infrared fluorescent imaging of tumor cells and inhibiting tumor cell growth in vitro, and permit selective destruction of any gold labeled cancer cells via radiofrequency treatment. The solubility of the labeled gold particles may be controlled by the dye molecules attached to the surface of gold particles or by additional solubilization groups attached to the gold particle surface as it is described by the literature or by prior art. Biodistribution of these gold particles are determined by the molecules attached to the gold particle surface and particle size.

λmax absorption: 780 nm
λmax emission (high intensity): 800 nm
Compound: CC1(C)C(/C=C/C2=C(Cl)C(=C/C=C3\Cc4ccccc4N3CCCCCC(=O)O)/CCC2)=[N+](CCCCCC(=O)O)c2ccccc21 [MHI-148]
